Measured values taken from article PMC2727864 (Molecular cancer therapeutics, 2008).
Values joined by “and” are separate entries in the source; they are usually repeats but may differ in a detail not shown here. Identical values can stand only once.

Assays:
[1] = test system: phospho-(pan)-PKC; experiment: Phospho-; assay type: cell-based, human; details: HT-29, 2 hr, EGF stimulated, Western blot
[2] = test system: phospho-Ser473 AKT; experiment: Inhibition of phospho-Ser473 AKT by Western analysis in NIH3T3 cells; assay type: cell-based; details: Mus musculus, NIH3T3, read-out: AKT inhibition (IC50) NIH3T3
[3] = test system: tumor phospho-Ser473 AKT; experiment: Pharmacodynamic study, tumor phospho-Ser473 AKT in HT-29 xenografts; assay type: in vivo, mouse
[4] = Solubility; assay type: physicochemical
[5] = test system: HT-29 colon cancer xenografts; experiment: Anti-tumor activity, HT-29 colon cancer xenografts in scid mice; assay type: in vivo, mouse; details: orally daily for 5 days at 250 mg/kg
[6] = Metabolic stability, incubation with HT-29 cells in DMEM at 37°C; assay type: in vitro ADME; details: human
[7] = test system: phospho-Ser473 AKT; experiment: Inhibition of phospho-Ser473 AKT by Western analysis in HT-29 cells; assay type: cell-based, human
[8] = LogP; assay type: physicochemical
[9] = Toxicity studies in mice; assay type: in vivo, mouse
[10] = Pharmacokinetic study, plasma concentration in mice; assay type: in vivo, mouse
[11] = test system: phospho-Ser241 PDK1; experiment: Phospho-Ser241 PDK1 Western analysis in HT-29 cells; assay type: cell-based, human; details: HT-29, 2 hr, EGF stimulated, Western blot
[12] = 24 hr after a single dose 250 mg/kg
[13] = five daily doses at 250 mg/kg ip

SMILES: CC1=NN(C(=O)c2ccc(Cl)cc2)C(=O)C1N=Nc1ccc(S(=O)(=O)Nc2ncccn2)cc1 (centres unmarked) [Compound 1, 4-[1-(4-Chlorobenzoyl)-3-methyl-5-oxo-4,5-dihydro-1H-pyrazol-4-ylazo]-N-pyrimidin-2-yl-benzenesulfonamide]
- phosphorylation of PKC [1]: decreased
- IC50 [2]: 4 µM
- inhibition of tumor phospho-Ser473 AKT at 4 hr ([3]; 4 hr after a single dose 250 mg/kg): small inhibition
- inhibition of tumor phospho-Ser473 AKT at 24 hr [3, 12]: no inhibition
- total AKT in tumor compared to actin loading control [3, 12]: significant decrease
- solubility [4]: very insoluble and 17.9 µM
- anti-tumor activity [5]: no activity
- half-life [6]: 1.03 h
- AKT phosphorylation, concentration response ([7]; HT-29, 2 hr, EGF stimulated, Western blot): decreased in a concentration-dependent manner
- IC50 ([7]; Homo sapiens, HT-29, read-out: AKT inhibition (IC50) HT-29): 13 µM
- logP [8]: 2.1
- body weight, blood lymphocyte, red blood cell and platelet count, AST, ALT [9, 13]: no change
- neutropenia [9, 13]: moderate neutropenia
- toxicity, single dose ([9]; single dose up to 250 mg/kg, ip, mice): no toxicity
- peak plasma concentration, ip ([10]; single dose 250 mg/kg ip): 1.4 µM
- peak plasma concentration, oral ([10]; single dose 250 mg/kg oral): 0.6 µM
- phosphorylation of PDK [11]: decreased
